The values below come from US4223024A, “4"-O-Alkylgentamicins and sagamicins” (Abbott Laboratories, priority 1979, dated 1980).

Converted amounts (≈) assume the structure as drawn.

For series [1] the following is noted: compared with gentamicin; background statement; cited from earlier work.
The subject of series [2] is Klebsiella pneumonia ATCC 10031. The experiment in a line: two fold dilution test (MIC), Klebsiella pneumonia ATCC 10031. Type of series: cell-based. Particulars: pH 7.9, overnight; for MIC (minimum inhibitory concentration): Streptomycin Assay Agar with yeast extract. Here is the method: (§1) The in vitro antibiotic activity is determined by a two fold dilution test using Streptomycin Assay Agar with yeast extract (at pH 7.9). The inoculum of approximately 1×10^5 of the indicated test organism is delivered by a multiple inoculator. The test is incubated over night.
(§2) The minimum inhibitory concentrations for the compounds of Example 4, Example 8, compound 1 and Example 12 compound, are set forth in Table II. The minimum inhibitory concentrations (MIC) are expressed in micrograms per ml.

In series [3] the test system is Shigella sonnei ATCC 9290. Put plainly: two fold dilution test (MIC), Shigella sonnei ATCC 9290. Type of series: cell-based. Particulars: pH 7.9, overnight; for MIC (minimum inhibitory concentration): Streptomycin Assay Agar with yeast extract. Here is the method:
as §1, §2

Series [4] has as its system Streptococcus faecalis ATCC 10541. Put plainly: two fold dilution test (MIC), Streptococcus faecalis ATCC 10541. To be noted: pH 7.9, overnight; for MIC (minimum inhibitory concentration): Streptomycin Assay Agar with yeast extract. Type of series: cell-based. Here is the method:
as §1, §2

Series [5] has as its system Proteus vulgaris ATCC 6897. The experiment in a line: two fold dilution test (MIC), Proteus vulgaris ATCC 6897. Type of series: cell-based. To be noted: pH 7.9, overnight; for MIC (minimum inhibitory concentration): Streptomycin Assay Agar with yeast extract. Here is the method:
as §1, §2

The subject of the next series is Escherichia coli ATCC 26. The experiment in a line: two fold dilution test (MIC), Escherichia coli ATCC 26. It counts as cell-based. To be noted: pH 7.9, overnight; for MIC (minimum inhibitory concentration): Streptomycin Assay Agar with yeast extract. As for the experimental part: as §1, §2
Series [6] has as its system Bacillis subtilis U. of I1. 10707. The experiment in a line: two fold dilution test (MIC), Bacillis subtilis U. of I1. 10707. To be noted: Streptomycin Assay Agar with yeast extract, pH 7.9, overnight. It counts as cell-based. Here is the method:
as §1, §2

Series [7] concerns Pseudomonas aeruginosa BMH #1. Put plainly: two fold dilution test (MIC), Pseudomonas aeruginosa BMH #1. Particulars: Streptomycin Assay Agar with yeast extract, pH 7.9, overnight. Type of series: cell-based. Here is the method:
as §1, §2

The subject of series [8] is Staphylococcus aureus ATCC 6538P. The experiment in a line: two fold dilution test (MIC), Staphylococcus aureus ATCC 6538P. Type of series: cell-based. To be noted: Streptomycin Assay Agar with yeast extract, pH 7.9, overnight. Here is the method: as §1, §2
The test system of a further series is Escherichia coli R3. The experiment in a line: two fold dilution test (MIC), Escherichia coli R3. Particulars: Streptomycin Assay Agar with yeast extract, pH 7.9, overnight. Type of series: cell-based. As for the experimental part:
as §1, §2

Series [9] concerns Salmonella typhi ATCC 9992. The experiment in a line: two fold dilution test (MIC), Salmonella typhi ATCC 9992. Type of series: cell-based. To be noted: for MIC (minimum inhibitory concentration): Salmonella typhi ATCC 9992, Streptomycin Assay Agar with yeast extract, pH 7.9, overnight. Here is the method: as §1, §2
Series [10] deals with aerobic gram-negative bacteria. To be noted: background statement; cited from earlier work.
Setting [11] is: read-out: MIC (minimum inhibitory concentration).

Take `CNCC1CCC(N)C(OC2C(N)CC(N)C(OC3OCC(C)(O)C(NC)C3O)C2O)O1` (centres unmarked) [Sagamicin, sagamicin]: in series [1], the ototoxicity result is recorded as “lower ototoxicity than does gentamicin”.

Regarding `CNCC1CCC(N)C(OC2C(N)CC(N)C(OC3OCC(C)(OC)C(NC)C3O)C2O)O1` (centres unmarked) [Ex 8(1), 4"-O-Methylsagamicin], the MIC in series [2] (Klebsiella pneumoniae, ATCC10031, Streptomycin Assay Agar with yeast extract, read-out: MIC (minimum inhibitory concentration)) came to 0.05 µg/mL (≈ 0.105 µM); in [3] (ATCC9290, Streptomycin Assay Agar with yeast extract, read-out: MIC (minimum inhibitory concentration)), 0.05 µg/mL (≈ 0.105 µM); in series [4] (Enterococcus faecalis, ATCC10541, Streptomycin Assay Agar with yeast extract, read-out: MIC (minimum inhibitory concentration)) it was 12.5 µg/mL (≈ 26.2 µM); in series [5] (ATCC6897, Streptomycin Assay Agar with yeast extract, read-out: MIC (minimum inhibitory concentration)), 0.05 µg/mL (≈ 0.105 µM); in the series on Escherichia coli ATCC 26 (ATCC26, Streptomycin Assay Agar with yeast extract, read-out: MIC (minimum inhibitory concentration)), 0.05 µg/mL (≈ 0.105 µM); in series [6] (setting [11]), 0.005 µg/mL (≈ 0.0105 µM). For the same compound, the MIC worked out at 0.4 µg/mL (≈ 0.838 µM) in series [7] (setting [11]); 0.05 µg/mL (≈ 0.105 µM) in series [8] (ATCC6538P, read-out: MIC (minimum inhibitory concentration)); 3.1 µg/mL (≈ 6.49 µM) with Escherichia coli R3 (setting [11]); 0.05 µg/mL (≈ 0.105 µM) in [9] (Salmonella enterica, pH 7.9, read-out: MIC (minimum inhibitory concentration)).

For the compound `CNC1C(O)C(OC2C(N)CC(N)C(OC3OC(CN)CCC3N)C2O)OCC1(C)OC` (centres unmarked) [Ex 4, 4"-O-Methylgentamicin C1a], the “MIC (minimum inhibitory concentration)” value in [2] came out at 0.005 µg/mL (≈ 0.0108 µM); in series [3] it was 0.04 µg/mL (≈ 0.0863 µM); in [4], 10.000 µg/mL (≈ 21.6 µM); in series [5], 0.08 µg/mL (≈ 0.173 µM); in the series with Escherichia coli ATCC 26 it was 0.005 µg/mL (≈ 0.0108 µM); in [6] it was 0.005 µg/mL (≈ 0.0108 µM). Further, the “MIC (minimum inhibitory concentration)” value in series [7] worked out at 0.63 µg/mL (≈ 1.36 µM); in [8] it was 0.005 µg/mL (≈ 0.0108 µM); in the series on Escherichia coli R3, 10.000 µg/mL (≈ 21.6 µM); in series [9], 0.01 µg/mL (≈ 0.0216 µM).

In the case of `CNC1C(O)C(OC2C(N)CC(N)C(OC3OC(CN)CCC3N)C2O)OCC1(C)OC` (stereo not drawn) [Ex 12, 5-Epi-4"-O-methylgentamicin C1a], the “MIC (minimum inhibitory concentration)” value in [2] is 0.005 µg/mL (≈ 0.0108 µM); in [3], 0.08 µg/mL (≈ 0.173 µM); in series [4] it was 25.00 µg/mL (≈ 53.9 µM); in series [5], 0.08 µg/mL (≈ 0.173 µM); with Escherichia coli ATCC 26, 0.02 µg/mL (≈ 0.0431 µM); in [6], 0.005 µg/mL (≈ 0.0108 µM). Also, the “MIC (minimum inhibitory concentration)” value in series [7] amounted to 0.63 µg/mL (≈ 1.36 µM); in series [8], 0.005 µg/mL (≈ 0.0108 µM); against Escherichia coli R3 it was 2.5 µg/mL (≈ 5.39 µM); in series [9] it was 0.01 µg/mL (≈ 0.0216 µM).

Turning to gentamicin, the “anti-bacterial spectrum / effectiveness” value in [10] was “effective against most aerobic gram-negative bacteria”.
